Source: article PMC3609778, “Truncated and Helix-Constrained Peptides with High Affinity and Specificity for the cFos Coiled-Coil of AP-1” (PLoS ONE, 2013)
Where a SMILES comes first, the peptide text is derived from it. Bridges are numbered along the chain shown (N, C = ends). [ ]: non-standard residue; d: D form. Cha = N[C@@H](CC1CCCCC1)C(=O)O

How the values were obtained:
circular dichroism = details: 10 mM K phosphate, 100 mM KF; pH 7; 20 °C; 150 uM
[1] = Circular dichroism helicity of peptide in isolation (homotypic); type: physicochemical; details: peptide in isolation; for Homotypic Ɵ222/208 (20ºC): CD ratio, 20 °C; for Fraction helical (ƒH), homotypic: from CD molar residue ellipticity at 222 nm, 20°C, 150 µM, pH 7
Procedure: (§1) Circular dichroism (CD) spectroscopy was conducted with an Applied Photophysics Chirascan CD spectroploarimeter (Leatherhead, U.K.) using a 200 µL sample in a CD cell with a 1 mm path length (Hellma, Müllheim Germany). Samples contained 150 µM total peptide concentration suspended in 10 mM potassium phosphate and 100 mM potassium fluoride at pH 7. The CD spectra of the homodimeric and heterodimeric complexes were scanned between 300 nm and 190 nm at 20°C (for both pre- and post-melt samples to check for reversibility of unfolding) and at −8°C to assess helical levels and coiled-coil structure (see Figure 4).
(§2) Supplementary file pone.0059415.s005.doc: Table S1 Helical Data obtained via Circular Dichroism. Shown are A) homo and B) heteromeric samples. […] A ratio higher than 1 is generally indicated evidence that a coiled coil has formed, while a ratio of less than 0.9 is taken to indicate the presence of isolated helices. Shown in column two are the calculated fractional helicities taken from the Molar Residue Ellipticity at […]. Fraction helicity (ƒH) can be calculated as ƒH = (θ222−θc)/(θ222∞−θc) where θ222∞ = (−44000+250*T)*(1−k/Nr) and θc = 2220–(53*T). In these equations the wavelength dependent constant k = 2.4 (at 222 nm), Nr = the number of residues, and T = 20 degrees Celsius (293 K). The 222/208 ratio is used to provide evidence on whether the helices are monomeric or are adopting a quaternary structure. Measured helicity for the original JunWCANDI peptide and for the template on which the hydrocarbon constraints have been introduced. […] The N- and C-capping motifs have been removed for the constrained since they are considered to be largely redundant upon their introduction. (DOC) Click here for additional data file.

cFos = cFos (Homo sapiens, UniProt P01100); test: Circular dichroism spectra of peptide-cFos mixtures; type: binding; details: mixture with cFos
Procedure: as §1
Thermal denaturation data and spectra for the cFos homotypic complex (black), helix constrained peptide (blue), and heteromeric complex (red) were recorded using 200 µL of sample at 150µM total peptide concentration (Figure 4, Figure S1). Next, 100 µL of each solution was mixed and the spectra taken such that the final total peptide concentration was also 150 µM. More experimental procedures can be found in File S1.
as §2

cJun = test: CD spectra and thermal denaturation of peptide-cJun mixtures (specificity); type: binding; details: equimolar with cJun
Procedure: To establish if the truncated and constrained peptides retained the interaction specificity of the JunWCANDI parent peptide, peptides capable of interacting with cFos were also incubated at equimolar concentrations with cJun and monitored via CD spectra. […] In addition, a dimer exchange experiment was performed for the most helical peptide 24. Spectra for a cJun-peptide solution and a cFos solution should, upon mixing, generate an averaged spectrum if there was no dimer exchange. […] Spectra for both mixtures can be superimposed (Figure S4).
Supplementary file pone.0059415.s002.tiff: Figure S2 Raw thermal melting data for homo and heterodimeric complexes with cJun for constrained peptides 1 , 2 , 8 , 9, 10 , 11, 12, 17, 20, 22, and 24 . […] (TIFF) Click here for additional data file.
Supplementary file pone.0059415.s003.tiff: Figure S3 CD spectra as MRE both in isolation and as a mixture with cJun. From these raw data it is also clear that no interaction is occurring between constrained peptides and cJun. Rather, specta appear as averages of their homodimeric components (i.e. superimpose with the homomeric averages). We observe no heteromeric helical signal (red) that exceeds the average (black dotted line) of cJun (black) and the constrained peptide (blue), that would be anticipated for a non-interacting pair. (TIFF) Click here for additional data file.
Supplementary file pone.0059415.s005.doc: Table S1 Helical Data obtained via Circular Dichroism. Shown are A) homo and B) heteromeric samples. […] A ratio higher than 1 is generally indicated evidence that a coiled coil has formed, while a ratio of less than 0.9 is taken to indicate the presence of isolated helices. Shown in column two are the calculated fractional helicities taken from the Molar Residue Ellipticity at […]. Fraction helicity (ƒH) can be calculated as ƒH = (θ222−θc)/(θ222∞−θc) where θ222∞ = (−44000+250*T)*(1−k/Nr) and θc = 2220–(53*T). […] Measured helicity for the original JunWCANDI peptide and for the template on which the hydrocarbon constraints have been introduced. […]

Chain of cFos (P01100 whole entry): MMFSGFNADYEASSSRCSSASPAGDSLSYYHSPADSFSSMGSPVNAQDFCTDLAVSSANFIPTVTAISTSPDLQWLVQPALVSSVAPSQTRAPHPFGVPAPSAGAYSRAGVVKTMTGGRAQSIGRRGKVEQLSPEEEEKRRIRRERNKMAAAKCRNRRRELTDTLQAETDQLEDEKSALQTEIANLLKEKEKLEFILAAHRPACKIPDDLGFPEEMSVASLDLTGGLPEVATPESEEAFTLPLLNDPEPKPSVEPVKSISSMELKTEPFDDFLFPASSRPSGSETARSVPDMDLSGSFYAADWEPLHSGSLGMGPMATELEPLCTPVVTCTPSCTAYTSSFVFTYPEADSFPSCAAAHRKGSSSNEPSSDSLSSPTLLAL

CC[C@H](C)[C@H](NC(=O)[C@H](Cc1c[nH]cn1)NC(=O)[C@@H]1CC(=O)NCCCC[C@H](NC(=O)[C@H](C)NC(=O)[C@H](CCCCN)NC(=O)[C@H](CO)NC(=O)[C@H](CCCNC(=N)N)NC(=O)[C@H](CC(C)C)NC(=O)[C@@H]2CC(=O)NCCCC[C@H](NC(=O)[C@H](CCCCN)NC(=O)[C@H](CC(C)C)NC(C)=O)C(=O)N[C@@H](CCC(=O)O)C(=O)N[C@@H]([C@@H](C)CC)C(=O)N[C@@H](Cc3ccc(O)cc3)C(=O)N2)C(=O)N[C@@H](CCSC)C(=O)N[C@@H](CC(C)C)C(=O)N[C@@H](CCCNC(=N)N)C(=O)N1)C(=O)N[C@@H](C)C(=O)N[C@@H](CCC(N)=O)C(=O)N[C@@H](CC(C)C)C(N)=O (Ac-LKKEIYDLRSKAKMLRDHIAQL-NH2; lactam 3-7, 13-17)
helicity (circular dichroism): 0.63 frac

CC[C@H](C)[C@@H]1NC(=O)[C@H](Cc2c[nH]cn2)NC(=O)[C@@H](NC(=O)[C@H](CCCNC(=N)N)NC(=O)[C@H](CC(C)C)NC(=O)[C@H](CCSC)NC(=O)[C@H](CC(N)=O)NC(=O)[C@H](C)NC(=O)[C@H](CCCCN)NC(=O)[C@H](CO)NC(=O)[C@H](CCCNC(=N)N)NC(=O)[C@H](CC(C)C)NC(=O)[C@@H]2CC(=O)NCCCC[C@H](NC(=O)[C@H](CCCCN)NC(=O)[C@H](CC(C)C)NC(C)=O)C(=O)N[C@@H](CCC(=O)O)C(=O)N[C@@H]([C@@H](C)CC)C(=O)N[C@@H](Cc3ccc(O)cc3)C(=O)N2)CCCCNC(=O)C[C@@H](C(=O)N[C@@H](CC(C)C)C(N)=O)NC(=O)[C@H](C)NC1=O (Ac-LKKEIYDLRSKANMLRKHIADL-NH2; lactam 3-7, 17-21)
helicity (circular dichroism): 0.57 frac

CC[C@H](C)[C@H](NC(=O)[C@H](Cc1c[nH]cn1)NC(=O)[C@@H]1CC(=O)NCCCC[C@H](NC(=O)[C@H](Cc2ccccc2)NC(=O)[C@H](CCCCN)NC(=O)[C@H](CO)NC(=O)[C@H](CCCNC(=N)N)NC(=O)[C@H](CC(C)C)NC(=O)[C@@H]2CC(=O)NCCCC[C@H](NC(=O)[C@H](CCCCN)NC(=O)[C@H](CC(C)C)NC(C)=O)C(=O)N[C@@H](CCC(=O)O)C(=O)N[C@@H]([C@@H](C)CC)C(=O)N[C@@H](Cc3ccc(O)cc3)C(=O)N2)C(=O)N[C@@H](CCSC)C(=O)N[C@@H](CC(C)C)C(=O)N[C@@H](CCCNC(=N)N)C(=O)N1)C(=O)N[C@@H](C)C(=O)N[C@@H](CCC(N)=O)C(=O)N[C@@H](CC(C)C)C(N)=O (Ac-LKKEIYDLRSKFKMLRDHIAQL-NH2; lactam 3-7, 13-17)
helicity (circular dichroism): 0.37 frac

CC[C@H](C)[C@H](NC(=O)[C@H](Cc1c[nH]cn1)NC(=O)[C@@H]1CC(=O)NCCCC[C@H](NC(=O)[C@H](C)NC(=O)[C@H](CC(C)C)NC(=O)[C@H](CO)NC(=O)[C@H](CCCNC(=N)N)NC(=O)[C@H](CC(C)C)NC(=O)[C@@H]2CC(=O)NCCCC[C@H](NC(=O)[C@H](CCCCN)NC(=O)[C@H](CC(C)C)NC(C)=O)C(=O)N[C@@H](CCC(=O)O)C(=O)N[C@@H]([C@@H](C)CC)C(=O)N[C@@H](Cc3ccc(O)cc3)C(=O)N2)C(=O)N[C@@H](CCSC)C(=O)N[C@@H](CC(C)C)C(=O)N[C@@H](CCCNC(=N)N)C(=O)N1)C(=O)N[C@@H](C)C(=O)N[C@@H](CCC(N)=O)C(=O)N[C@@H](CC(C)C)C(N)=O (Ac-LKKEIYDLRSLAKMLRDHIAQL-NH2; lactam 3-7, 13-17)
helicity (circular dichroism): 0.34 frac

CC[C@H](C)[C@H](NC(=O)[C@H](Cc1c[nH]cn1)NC(=O)[C@@H]1CC(=O)NCCCC[C@H](NC(=O)[C@H](C)NC(=O)[C@H](CCCCN)NC(=O)[C@H](CO)NC(=O)[C@H](CCCNC(=N)N)NC(=O)[C@H](CC(C)C)NC(=O)[C@@H]2CC(=O)NCCCC[C@H](NC(=O)[C@H](CCCCN)NC(=O)[C@H](CC(C)C)NC(C)=O)C(=O)N[C@@H](CCC(=O)O)C(=O)N[C@@H](CC(N)=O)C(=O)N[C@@H](Cc3ccc(O)cc3)C(=O)N2)C(=O)N[C@@H](CCSC)C(=O)N[C@@H](CC(C)C)C(=O)N[C@@H](CCCNC(=N)N)C(=O)N1)C(=O)N[C@@H](C)C(=O)N[C@@H](CCC(N)=O)C(=O)N[C@@H](CC(C)C)C(N)=O (Ac-LKKENYDLRSKAKMLRDHIAQL-NH2; lactam 3-7, 13-17)
helicity (circular dichroism): 0.33 frac

CC[C@H](C)[C@H](NC(=O)[C@H](Cc1c[nH]cn1)NC(=O)[C@@H]1CC(=O)NCCCC[C@H](NC(=O)[C@H](C)NC(=O)[C@H](CCCCN)NC(=O)[C@H](CO)NC(=O)[C@H](CCCNC(=N)N)NC(=O)[C@H](CC(C)C)NC(=O)[C@@H]2CC(=O)NCCCC[C@H](NC(=O)[C@H](CCCNC(=N)N)NC(=O)[C@H](CC(C)C)NC(C)=O)C(=O)N[C@@H](CCC(=O)O)C(=O)N[C@@H]([C@@H](C)CC)C(=O)N[C@@H](Cc3ccc(O)cc3)C(=O)N2)C(=O)N[C@@H](CCSC)C(=O)N[C@@H](CC(C)C)C(=O)N[C@@H](CCCNC(=N)N)C(=O)N1)C(=O)N[C@@H](C)C(=O)N[C@@H](CCC(N)=O)C(=O)N[C@@H](CC(C)C)C(N)=O (Ac-LRKEIYDLRSKAKMLRDHIAQL-NH2; lactam 3-7, 13-17)
helicity (circular dichroism): 0.34 frac

CC[C@H](C)[C@H](NC(=O)[C@H](Cc1c[nH]cn1)NC(=O)[C@@H]1CC(=O)NCCCC[C@H](NC(=O)[C@H](C)NC(=O)[C@H](CCCCN)NC(=O)[C@H](CO)NC(=O)[C@H](CCCNC(=N)N)NC(=O)[C@H](CC2CCCCC2)NC(=O)[C@@H]2CC(=O)NCCCC[C@H](NC(=O)[C@H](CCCCN)NC(=O)[C@H](CC(C)C)NC(C)=O)C(=O)N[C@@H](CCC(=O)O)C(=O)N[C@@H]([C@@H](C)CC)C(=O)N[C@@H](Cc3ccc(O)cc3)C(=O)N2)C(=O)N[C@@H](CCSC)C(=O)N[C@@H](CC(C)C)C(=O)N[C@@H](CCCNC(=N)N)C(=O)N1)C(=O)N[C@@H](C)C(=O)N[C@@H](CCC(N)=O)C(=O)N[C@@H](CC(C)C)C(N)=O [compound 17] (Ac-LKKEIYD[Cha]RSKAKMLRDHIAQL-NH2; lactam 3-7, 13-17)
Homotypic Ɵ222/208 (20ºC) [1]: 0.91
Fraction helical (ƒH), homotypic [1]: 0.42
Peptide-cFos Ɵ222/208 (20ºC) (cFos; CD ratio, 20 °C): 0.90
Peptide-cFos Fraction helical (ƒH) (cFos; CD 222 nm, 20°C, 150 µM total peptide): 0.40
interaction with cJun (in words) (cJun): none of the peptides form a stable interaction with cJun

Ac-ASTDTLQAETDQLEDEKYALQTEIANLLKEKEKLGAP-NH2 [cFos]
Homotypic Ɵ222/208 (20ºC) [1]: 0.59
Fraction helical (ƒH), homotypic [1]: 0.20
